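Dose response: 5 concentrations. Exposure: 48 h. Format: 96-well plates. Endpoint: linear interpolation; highest concentration if not reached. At the GI50, growth is halved. The concentration for full growth arrest is given as TGI.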
Legend:
Test in all cases: growth of human tumour cells (NCI), 48 h; in the data active = GI50 below about 0.43 µM; inactive = the rest
[1] = tested on: SK-OV-3 ovarian
[2] = tested on: LOX IMVI melanoma
[3] = tested on: RPMI-8226 leukemia
[4] = tested on: COLO 205 colon
[5] = tested on: SW-620 colon
[6] = tested on: NCI-H460 lung
[7] = tested on: OVCAR-3 ovarian
[8] = tested on: EKVX NSCLC
[9] = tested on: SF-295 CNS
[10] = tested on: CCRF-CEM leukemia
[11] = tested on: K-562 leukemia
[12] = tested on: U251 CNS
[13] = tested on: HCT-116 colon
[14] = tested on: OVCAR-8 ovarian
[15] = tested on: TK-10 renal
[16] = tested on: HCC-2998 colon
[17] = tested on: HCT-15 colon
[18] = tested on: MDA-MB-231 breast
[19] = tested on: MDA-MB-435
[20] = tested on: SK-MEL-2 melanoma
[21] = tested on: SK-MEL-5 melanoma
[22] = tested on: UO-31 renal
[23] = tested on: UACC-62 melanoma
[24] = tested on: DU-145 prostate
[25] = tested on: HL-60(TB) leukemia
[26] = tested on: A549 NSCLC
[27] = tested on: CAKI-1 renal
[28] = tested on: BT-549 breast
[29] = tested on: SF-539 CNS
[30] = tested on: HT29 colon
[31] = tested on: MCF7 breast
[32] = tested on: NCI-H226 lung
[33] = tested on: SK-MEL-28 melanoma
[34] = tested on: NCI/ADR-RES ovarian
[35] = tested on: HOP-92 NSCLC
[36] = tested on: SF-268 CNS
[37] = tested on: SR leukemia
[38] = tested on: IGROV1 ovarian
[39] = tested on: MOLT-4 leukemia
[40] = tested on: 786-0 renal
[41] = tested on: SN12C renal
[42] = tested on: NCI-H522 lung
[43] = tested on: NCI-H23 lung
[44] = tested on: M14 melanoma
[45] = tested on: OVCAR-4 ovarian
[46] = tested on: KM12 colon
[47] = tested on: UACC-257 melanoma
[48] = tested on: HS 578T breast
[49] = tested on: OVCAR-5 ovarian
[50] = tested on: PC-3 prostate
[51] = tested on: A498 renal
[52] = tested on: RXF 393 renal
[53] = tested on: ACHN renal
[54] = tested on: SNB-19 CNS
[55] = tested on: SNB-75 CNS
[56] = tested on: MALME-3M melanoma
[57] = tested on: HOP-62 NSCLC

c1ccc2c(c1)nc1n2sc2nc3ccccc3n21
> 100 µM: TGI [1] | TGI [2] | TGI [3] | TGI [4] | TGI [5] | TGI [6] | TGI [7] | TGI [8] | TGI [9] | TGI [10] | TGI [11] | TGI [12] | TGI [13] | TGI [14] | TGI [15] | TGI [16] | TGI [17] | TGI [18] | TGI [19] | TGI [20] | TGI [21] | TGI [22] | TGI [24] | TGI [25] | TGI [26] | TGI [27] | TGI [28] | TGI [29] | TGI [30] | TGI [31] | TGI [32] | TGI [33] | TGI [34] | TGI [35] | TGI [36] | TGI [37] | TGI [38] | TGI [39] | TGI [40] | TGI [41] | TGI [42] | TGI [43] | TGI [44] | TGI [45] | TGI [46] | TGI [47] | TGI [48] | TGI [49] | TGI [50]
79 µM: TGI [23]

C(#Cc1cnccn1)/C=C\C#Cc1cnccn1
28.4 µM: TGI [7]
31.7 µM: TGI [49]
6.92 µM: TGI [27]
11.5 µM: TGI [16]
32.1 µM: TGI [9]
16 µM: TGI [8]
68.1 µM: TGI [32]
46.1 µM: TGI [29]
33.1 µM: TGI [19]
20.7 µM: TGI [18]
42.2 µM: TGI [26]
50.7 µM: TGI [51]
40 µM: TGI [53]
10.6 µM: TGI [17]
83.9 µM: TGI [35]
6.88 µM: TGI [5]
27.1 µM: TGI [47]
29.9 µM: TGI [41]
97.3 µM: TGI [50]
10.5 µM: TGI [2]
22.4 µM: TGI [46]
22.3 µM: TGI [23]
> 100 µM: TGI [6] | TGI [10] | TGI [11] | TGI [14] | TGI [20] | TGI [22] | TGI [25] | TGI [31] | TGI [36] | TGI [37] | TGI [38] | TGI [39] | TGI [48]
29 µM: TGI [40]
3.79 µM: TGI [43]
37.4 µM: TGI [28]
72 µM: TGI [24]
44.3 µM: TGI [34]
43.8 µM: TGI [3]
18.1 µM: TGI [42]
38.6 µM: TGI [52]
39.9 µM: TGI [21]
inactive: GI50 [2] 1.65 µM | GI50 [3] 8.49 µM | GI50 [5] 2.87 µM | GI50 [6] 19.4 µM | GI50 [7] 7.14 µM | GI50 [8] 3.69 µM | GI50 [9] 15 µM | GI50 [10] 2.67 µM | GI50 [11] 4.18 µM | GI50 [14] 12.5 µM | GI50 [16] 3.63 µM | GI50 [17] 2.74 µM | GI50 [18] 4.4 µM | GI50 [19] 7.72 µM | GI50 [20] 41.8 µM | GI50 [21] 19.8 µM | GI50 [22] 36 µM | GI50 [23] 10.4 µM | GI50 [24] 19.2 µM | GI50 [25] 24.1 µM | GI50 [26] 15.6 µM | GI50 [27] 2.14 µM | GI50 [28] 12 µM | GI50 [29] 15.4 µM | GI50 [31] 14.1 µM | GI50 [51] 27.8 µM | GI50 [32] 23.3 µM | GI50 [34] 7.46 µM | GI50 [35] 31.1 µM | GI50 [36] 22.8 µM | GI50 [37] 3.54 µM | GI50 [52] 13 µM | GI50 [38] 33.1 µM | GI50 [39] 11.4 µM | GI50 [40] 10.7 µM | GI50 [41] 13.6 µM | GI50 [42] 2.4 µM | GI50 [43] 1.65 µM | GI50 [44] 1.72 µM | GI50 [46] 3.43 µM | GI50 [53] 16 µM | GI50 [47] 7.43 µM | GI50 [48] 31.6 µM | GI50 [49] 16.4 µM | GI50 [50] 29.7 µM
3.86 µM: TGI [44]

O=c1c2cc(F)ccc2sc2c(N3CCNCC3)nc3ccccc3c12
2.85 µM: TGI [17]
3.48 µM: TGI [32]
2.78 µM: TGI [18]
3.17 µM: TGI [9] | TGI [33]
3.56 µM: TGI [39]
3.54 µM: TGI [26]
3.09 µM: TGI [7] | TGI [23]
3.22 µM: TGI [56] | TGI [34]
2.71 µM: TGI [22]
3.34 µM: TGI [46]
3.72 µM: TGI [25] | TGI [42]
4 µM: TGI [20]
3.01 µM: TGI [5] | TGI [13]
3.18 µM: TGI [21] | TGI [36]
4.08 µM: TGI [14]
2.93 µM: TGI [27] | TGI [40]
3.04 µM: TGI [54] | TGI [41]
2.99 µM: TGI [6]
2.65 µM: TGI [52]
inactive: GI50 [2] 1.59 µM | GI50 [3] 1.77 µM | GI50 [4] 1.75 µM | GI50 [5] 1.51 µM | GI50 [6] 1.49 µM | GI50 [7] 1.66 µM | GI50 [54] 1.61 µM | GI50 [8] 1.55 µM | GI50 [9] 1.75 µM | GI50 [12] 1.57 µM | GI50 [13] 1.59 µM | GI50 [14] 1.82 µM | GI50 [55] 1.43 µM | GI50 [15] 1.69 µM | GI50 [16] 1.65 µM | GI50 [17] 1.41 µM | GI50 [18] 1.39 µM | GI50 [19] 1.65 µM | GI50 [20] 2.01 µM | GI50 [21] 1.76 µM | GI50 [22] 1.37 µM | GI50 [23] 1.69 µM | GI50 [24] 1.69 µM | GI50 [25] 1.9 µM | GI50 [26] 1.65 µM | GI50 [27] 1.59 µM | GI50 [28] 7.76 µM | GI50 [56] 1.64 µM | GI50 [29] 1.63 µM | GI50 [30] 1.64 µM | GI50 [31] 1.7 µM | GI50 [51] 1.44 µM | GI50 [32] 1.82 µM | GI50 [33] 1.75 µM | GI50 [34] 1.69 µM | GI50 [35] 0.867 µM | GI50 [36] 1.55 µM | GI50 [37] 1.54 µM | GI50 [52] 1.29 µM | GI50 [38] 1.5 µM | GI50 [39] 1.7 µM | GI50 [40] 1.45 µM | GI50 [41] 1.59 µM | GI50 [42] 1.86 µM | GI50 [43] 1.78 µM | GI50 [57] 1.61 µM | GI50 [44] 1.78 µM | GI50 [45] 1.74 µM | GI50 [46] 1.72 µM | GI50 [53] 1.56 µM | GI50 [47] 1.99 µM | GI50 [48] 1.53 µM | GI50 [49] 1.67 µM | GI50 [50] 1.61 µM
3.08 µM: TGI [49]
4.14 µM: TGI [37]
3.27 µM: TGI [31] | TGI [43] | TGI [44]
3.31 µM: TGI [48]
3.12 µM: TGI [24]
2.91 µM: TGI [51]
3.46 µM: TGI [45]
3.35 µM: TGI [30]
2.8 µM: TGI [55]
3.42 µM: TGI [12]
3.05 µM: TGI [16] | TGI [19] | TGI [29]
3.87 µM: TGI [47]
2.98 µM: TGI [8]
3.77 µM: TGI [3]
2.22 µM: TGI [35]
3.24 µM: TGI [15]
2.89 µM: TGI [53]
3.1 µM: TGI [50]
3.44 µM: TGI [57]
4.03 µM: TGI [4]
20.9 µM: TGI [28]
3.02 µM: TGI [2] | TGI [38]

Source: PubChem BioAssay (NCI)
